Laboratory results published in the NIST ThermoML archive (doi:10.1016/j.jct.2018.12.031).
± gives the expanded uncertainty stated by the source.

Test: xn = mol fraction of the nth substance listed
Conditions: 100 kPa, Liquid; for speed of sound: Frequency=3 MHz, Linear variable-path acoustic interferometer; for mass density: Pycnometric method

C=C(C)C(=O)OCC [ethyl 2-methylpropenoate] + N#Cc1ccccc1
Conditions | mass density, 308.15 K [kg/m3] | mass density, 313.15 K [kg/m3] | mass density, 318.15 K [kg/m3] | speed of sound, 308.15 K [m/s] | speed of sound, 313.15 K [m/s] | speed of sound, 318.15 K [m/s]
x2 = 0 | 896.94 ± 1 | 891.83 ± 1 | 886.71 ± 1 | 1139.4 ± 1.6 | 1121.5 ± 1.6 | 1104.6 ± 1.6
x2 = 0.0711 | 903.26 ± 1 | 898.24 ± 1 | 893.22 ± 1 | 1156.4 ± 1.6 | 1138.9 ± 1.6 | 1122.5 ± 1.6
x2 = 0.1419 | 909.61 ± 1 | 904.68 ± 1 | 899.75 ± 1 | 1172.7 ± 1.6 | 1155.3 ± 1.6 | 1139.1 ± 1.6
x2 = 0.2152 | 916.24 ± 1 | 911.41 ± 1 | 906.58 ± 1 | 1188.9 ± 1.6 | 1171.7 ± 1.6 | 1155.6 ± 1.6
x2 = 0.2872 | 922.82 ± 1 | 918.09 ± 1 | 913.35 ± 1 | 1204.6 ± 1.6 | 1187.4 ± 1.6 | 1171.4 ± 1.6
x2 = 0.3568 | 929.26 ± 1 | 924.62 ± 1 | 919.98 ± 1 | 1219.8 ± 1.6 | 1202.7 ± 1.6 | 1186.5 ± 1.6
x2 = 0.4307 | 936.17 ± 1 | 931.64 ± 1 | 927.11 ± 1 | 1236 ± 1.6 | 1218.9 ± 1.6 | 1202.7 ± 1.6
x2 = 0.4991 | 942.67 ± 1 | 938.23 ± 1 | 933.79 ± 1 | 1251.3 ± 1.6 | 1234.1 ± 1.6 | 1217.9 ± 1.6
x2 = 0.5752 | 949.99 ± 1 | 945.66 ± 1 | 941.33 ± 1 | 1268.7 ± 1.6 | 1251.8 ± 1.6 | 1235.6 ± 1.6
x2 = 0.6431 | 956.62 ± 1 | 952.39 ± 1 | 948.16 ± 1 | 1284.7 ± 1.7 | 1268.2 ± 1.6 | 1252.3 ± 1.6
x2 = 0.7177 | 964.02 ± 1 | 959.9 ± 1 | 955.78 ± 1 | 1303.5 ± 1.7 | 1287.3 ± 1.7 | 1271.8 ± 1.6
x2 = 0.7773 | 970 ± 1 | 965.97 ± 1 | 961.94 ± 1 | 1319.3 ± 1.7 | 1303.5 ± 1.7 | 1288.2 ± 1.7
x2 = 0.8576 | 978.17 ± 1 | 974.27 ± 1 | 970.37 ± 1 | 1341.8 ± 1.7 | 1326.1 ± 1.7 | 1311.3 ± 1.7
x2 = 0.9289 | 985.54 ± 1 | 981.75 ± 1 | 977.96 ± 1 | 1362.6 ± 1.7 | 1347.2 ± 1.7 | 1332.3 ± 1.7
